Laboratory results as given in patent publication US20120302616A1, “METHOD OF TREATMENT OF OBSESSIVE COMPULSIVE DISORDER WITH ONDANSETRON” (priority 2010, published 2012).
Values joined by “and” are separate entries in the source; they are usually repeats but may differ in a detail not shown here. Identical values can stand only once.

Experiments:
[1] = tested on: patients with treatment-resistant OCD; experiment: Ondansetron augmentation of SRI plus antipsychotic therapy, single-blind 12-week study (YBOCS, CGI, MADRS); type: in vivo, human
From the text: Between March 2008 and November 2008, fourteen adults aged 18 to 55 were enrolled in a study at the Institute for Neuroscience, Florence, Italy. […] All diagnoses were established utilizing a structured interview, the Structured Clinical Interview for DSM IV Axis I Disorders (SCID I). (See Spitzer, R. L. et al. ARCH GEN PSYCHIATRY 49(8):624-649) Potential subjects with a history of alcohol or substance abuse, current severe depressive symptoms, bipolar disorder, panic disorder, schizophrenia, other psychiatric conditions, heart disease, arrhythmia, liver problems (including cirrhosis), seizures, glaucoma or serious medical disease were excluded. Patients with hoarding as their only OCD symptom and women of childbearing potential not using a medically acceptable contraceptive method were also excluded. After being fully informed about the study and signing an informed consent approved by the Internal Institutional Review Board, subjects were administered an ondansetron hydrochloride (oral solution) dosage of 0.25 mg twice a day for 6 weeks, followed by 0.5 mg twice a day for 6 weeks for a total observation period of 12 weeks. […] The Y-BOCS, Montgomery-Asberg Depression Rating Scale (MADRS) (see Montgomery, S. A., BR J PSYCHIATRY 1979; 134:382-389) was administered at screening and baseline, and these assessments were repeated at every follow-up visit at 2-week intervals, along with the Clinical Global Impressions-Improvement (CGI-I) rating (see Guy, W. ECDEU Assessment Manual for Psychopharmacology. US Dept Health, Education, and Welfare publication (ADM) 76-338. Rockville, Md.: National Institute of Mental Health; 1976:218-222) and an unpublished Drug Effect scale. The Drug Effect scale asked subjects to rate “How anxious are you now?” on a scale of zero (not at all) to 10 (“the most anxious I have ever been”). Similar rating questions have been “Do you experience appearance or increment in frequency of headaches?”, “Do you experience appearance or increment in frequency of headaches fatigue?” and “Do you experience appearance or increment in frequency of headaches constipation” and so on regarding other common ondansetron side effects (diarrhea, urinary retention, itching, and dizziness). Furthermore, each evening during the first week of study medication, a study psychiatrist called the subject to ask for major or unexpected collateral effects (as chest pain, an unexplained skin rash, or tremors.). […] (See […]. et al., AM J PSYCHIATRY 1997; 154:320-321) Subjects with MADRS scores ≧18 were excluded. Ratings were administered by an investigator who was blind to the treatment condition of the patients. Given the small sample size, mean changes from baseline in rating scales were tested with a non-parametric method based on ranks (Wilcoxon signed rank test), using a two-tailed significance level of p≦0.05. Relationships among rated and demographical variables were tested with Spearman's rank correlation tests, using a two-tailed significance level of p≦0.05. Age, baseline OCD severity, and depressive symptoms were controlled for by stratifying through the Mantel-Haenszel χ2 test. Body mass index (BMI) was adjusted given the differences of ondansetron bioavailability according to BMI.

[2] = tested on: patients with treatment-resistant OCD; experiment: Side effects and vital signs in the SRI plus antipsychotic augmentation study; type: in vivo, human
Description: The Y-BOCS, Montgomery-Asberg Depression Rating Scale (MADRS) (see Montgomery, S. A., BR J PSYCHIATRY 1979; 134:382-389) was administered at screening and baseline, and these assessments were repeated at every follow-up visit at 2-week intervals, along with the Clinical Global Impressions-Improvement (CGI-I) rating (see Guy, W. ECDEU Assessment Manual for Psychopharmacology. US Dept Health, Education, and Welfare publication (ADM) 76-338. Rockville, Md.: National Institute of Mental Health; 1976:218-222) and an unpublished Drug Effect scale. The Drug Effect scale asked subjects to rate “How anxious are you now?” on a scale of zero (not at all) to 10 (“the most anxious I have ever been”). Similar rating questions have been “Do you experience appearance or increment in frequency of headaches?”, “Do you experience appearance or increment in frequency of headaches fatigue?” and “Do you experience appearance or increment in frequency of headaches constipation” and so on regarding other common ondansetron side effects (diarrhea, urinary retention, itching, and dizziness). Furthermore, each evening during the first week of study medication, a study psychiatrist called the subject to ask for major or unexpected collateral effects (as chest pain, an unexplained skin rash, or tremors.). […] (See Mittmann, N. et al., AM J PSYCHIATRY 1997; 154:320-321) Subjects with MADRS scores ≧18 were excluded. Ratings were administered by an investigator who was blind to the treatment condition of the patients.
One patient reported a mild increase in anxiety levels, which lasted only one night. No change in mean pulse rate or mean blood pressure was observed. […] The daily dose of 1 mg/day divided in twice daily administration, approximately 5% of the minimum dose recommended for emesis and nausea treatment was reached after 6 weeks and maintained until the 12th week.

[3] = tested on: mesenteric bed or the nerves in the heart; settings: animal studies; cited from earlier work
[4] = End of 6th week, Non responder (n = 5)
[5] = End of 6th week, Responder (n = 9)
[6] = End of 12th week, Non responder (n = 5)
[7] = End of 12th week, Responder (n = 9)
[8] = from baseline, individual patients 1-14
[9] = first 2 weeks of treatment, n=14

Q: With `Cc1nccn1CC1CCc2c(c3ccccc3n2C)C1=O` (stereo not shown) [ondansetron] as the molecule, how does the “YBOCS Score” value ([1]; 6 weeks, individual patients 1-14) read?
A: The value was 25 (3×) and 28 and 17 (2×) and 16 and 27 and 26 and 24 (3×) and 19 and 21.

Q: And the “average YBOCS score decrease of the whole group” value ([1]; 6 weeks, n=14)?
A: Its value is 16%.

Q: What about the “patients reaching YBOCS criteria for treatment response (decrease of ≧25%)” value ([1]; 12th week, 9/14) of the same molecule?
A: Its value is 64.2%.

Q: What about the “patients very much improved or much improved (CGI-I 1 or 2)” value ([1]; 12th week, of 14) of the same molecule?
A: The value was “seven”.

Q: And the “YBOCS Score” value ([1]; 12 weeks, individual patients 1-14)?
A: The value was 25 (3×) and 15 (2×) and 14 and 30 and 23 and 22 (2×) and 24 and 18 and 17 and 20.

Q: And the “average YBOCS score decrease of the whole group” value ([1]; 12 weeks, n=14)?
A: Its value is 23%.

Q: And the “patients with greater than 25% improvement in OCD symptoms” value ([1]; 12 weeks, n=14)?
A: The value was “Sixty-four”.

Q: What about the “CGI (mean)” value [1, 4] of the same molecule?
A: The value was 4.6.

Q: And the “MADRS (mean)” value [1, 4]?
A: The value was 8.0.

Q: And the “CGI (mean)” value [1, 5]?
A: Its value is 3.4.

Q: And the “MADRS (mean)” value [1, 5]?
A: The value was 6.7.

Q: And the “CGI (mean)” value [1, 6]?
A: The value was 4.8.

Q: And the “MADRS (mean)” value [1, 6]?
A: Its value is 7.6.

Q: What about the “YBOCS (mean)” value [1, 6] of the same molecule?
A: Its value is 21.4.

Q: What about the “CGI (mean)” value [1, 7] of the same molecule?
A: Its value is 2.3.

Q: And the “MADRS (mean)” value [1, 7]?
A: Its value is 6.8.

Q: And the YBOCS score decrease ([1]; Patient 11 (citalopram 60 mg/day and risperidone 2 mg/day), 12th week)?
A: Its YBOCS score decrease is ≥ 35%.

Q: What about the “Mean MADRS scores change from baseline” value ([1]; baseline to the end of week 1) of the same molecule?
A: The value was “did not change significantly”.

Q: What about the “YBOCS Percent Reduction at 6 weeks” value [1, 8] of the same molecule?
A: Its value is 20.00% (2×) and 15.00% and .00%.

Q: What about the “YBOCS Percent Reduction at 12 weeks” value [1, 8] of the same molecule?
A: The value was 28.57% and 25.00% (2×) and 30.00%.

Q: And the “patients with significant improvement in OCD symptoms” value ([1]; out of 14, within 12 weeks of treatment)?
A: Its value is 9.

Q: What about the “Clinical Global Impressions-Improvement (CGI-I) scores” value ([1]; through week 12) of the same molecule?
A: Its value is “improved concurrent with improvement in the YBOCS scores”.

Q: And the “outcome after discontinuation of the ondansetron” value ([1]; two responder patients)?
A: The value was “experienced worsening”.

Q: What about the “subjects with significant or lasting side effects (such as constipation)” value ([2]; 12 weeks) of the same molecule?
A: The value was “None”.

Q: And the “subjects with significant side effects or worsening of OC symptoms” value ([2]; at 6 weeks, fourteen subjects)?
A: The value was “None”.

Q: And the “patients with decreased appetite” value [2, 9]?
A: Its value is “two”.

Q: And the patients with headache [2, 9]?
A: The patients with headache was “two”.

Q: And the “patients with mild increase in anxiety levels” value ([2]; lasted only one night, n=14)?
A: Its value is “One”.

Q: What about the “mean pulse rate or mean blood pressure” value ([2]; n=14) of the same molecule?
A: The value was “No change”.

Q: What about the Side effects severity ([2]; throughout the study, n=14) of the same molecule?
A: The Side effects severity was “mild to moderate”.

Q: And the “effect on the mesenteric bed or the nerves in the heart” value [3]?
A: Its value is “did not appear to have effect”.
